# Test results: paper PMC6040651 (Pediatric blood & cancer, 2018)
# Read-outs that look alike come from different tables or passages of the source.
# Experiments:
# [1] = test system: acetylated histone H3 in PBMC; experiment: PBMC histone acetylation; assay type: in vivo, patients; conditions: for Mean percent change in histone acetylation (HA) levels from baseline: PBMC
# [2] = Vorinostat serum pharmacokinetics, cycle 1
# [3] = dosed continuously; pediatric relapsed solid tumors; cited from earlier work
# [4] = test system: xenografts from neuroblastoma cell lines; conditions: xenografts from four of six neuroblastoma cell lines; cited from earlier work
# [5] = test system: histone acetylation in PBMC; conditions: cited from earlier work
# [6] = test system: refractory/recurrent neuroblastoma; experiment: Antitumor activity; assay type: in vivo, patients; conditions: vorinostat + isotretinoin
# [7] = Phase I dose escalation and toxicity assessment; conditions: dose level 5 (430 mg/m^2/dose) + isotretinoin, n = 6
# [8] = Isotretinoin pharmacokinetics, single sample on cycle 1 day 14; conditions: human, serum, oral, 80 mg/m^2/dose, 4 hr after the last dose of isotretinoin in cycle 1 (80 mg/m^2/dose twice daily), 12 patients
# [9] = all dose levels, n = 23/28, geometric mean (95% confidence interval), oral, cycle 1
# [10] = dose level 1 (180 mg/m^2/dose), n = 6/7, geometric mean (95% confidence interval), oral, cycle 1
# [11] = dose level 5—MTD (430 mg/m^2/dose), n = 9/12, geometric mean (95% confidence interval), oral, cycle 1
compound,measurement,setting,value
"O=C(CCCCCCC(=O)Nc1ccccc1)NO [vorinostat, suberoylanilide hydroxamic acid]","Percent change from baseline in HA levels, dose level 5 compared to dose levels 1–4","[1]; 1 hr post treatment, P = 0.009, difference persisted at hours 6 and 24",significantly greater
same,Mean percent change in histone acetylation (HA) levels from baseline,"[1]; dose level 5, hour 1, 6 patients",18.5%
same,Mean percent change in histone acetylation (HA) levels from baseline,"[1]; dose level 5, hour 6, 6 patients",21.9%
same,Mean percent change in histone acetylation (HA) levels from baseline,"[1]; dose level 5, hour 24, 5 patients",14.4%
same,Mean percent change in histone acetylation (HA) levels from baseline,"[1]; dose levels 1–4, hour 1, 7 patients",–3.9%
same,Mean percent change in histone acetylation (HA) levels from baseline,"[1]; dose levels 1–4, hour 6, 5 patients",–2.9%
same,Clearance (Cl F obs),[2]; [9],"151 (115, 197) l/hr"
same,Cmax,[2]; [9],"428 (348, 526) ng/ml"
same,Clearance (Cl F obs),[2]; [10],"152 (93, 250) l/hr"
same,t½,[2]; [10],"2.6 (1.7, 4.0) hr"
same,Clearance (Cl F obs),"[2]; dose level 2 (230 mg/m^2/dose), n = 2/3, geometric mean (95% confidence interval), oral, cycle 1","181 (76, 427) l/hr"
same,Clearance (Cl F obs),"[2]; dose level 3 (300 mg/m^2/dose), n = 3/3, geometric mean (95% confidence interval), oral, cycle 1","129 (64, 260) l/hr"
same,Clearance (Cl F obs),"[2]; dose level 4 (360 mg/m^2/dose), n = 3/3, geometric mean (95% confidence interval), oral, cycle 1","322 (159, 649) l/hr"
same,Clearance (Cl F obs),[2]; [11],"118 (79, 177) l/hr"
same,t½,[2]; [11],"3.2 (2.3, 4.5) hr"
same,AUC(0-inf),"[2]; human, serum, oral",930 to 5780 ng·h/mL
same,Cmax,"[2]; human, serum, oral",158 to 980 ng/mL
same,clearance,"[2]; human, serum, oral",967 to 7250 mL/min
same,half-life,"[2]; human, serum, oral",1.2 to 10.1 h
same,AUC(0-inf),"[2]; human, serum, po",2170 ng·h/mL
same,AUC(0-inf),"[2]; human, serum, po, 180 mg/m2",1350 ng·h/mL
same,AUC(0-inf),"[2]; human, serum, po, 230 mg/m2",1670 ng·h/mL
same,half-life,"[2]; human, serum, po, 230 mg/m2",2.4 h
same,AUC(0-inf),"[2]; human, serum, po, 300 mg/m2",2640 ng·h/mL
same,Cmax,"[2]; human, serum, po, 300 mg/m2",552 ng/mL
same,AUC(0-inf),"[2]; human, serum, po, 430 mg/m2",3250 ng·h/mL
same,Cmax,"[2]; human, serum, po, 430 mg/m2",587 ng/mL
same,MTD of vorinostat alone,[3],230 mg/m^2/day
same,Event-free survival compared to control-treated mice,[4],statistically significant prolongation in event-free survival
same,Histone acetylation in PBMC,[5]; continuous vorinostat MTD (230 mg/m^2/dose),only transient PBMC HA was observed
same,Histone acetylation in PBMC,[5]; highest continuous dose level of vorinostat (300 mg/m^2/dose),consistent PBMC HA
same,Objective responses (CR or PR),"[6]; all dose levels, 19 patients evaluable for response",No objective responses
same,Patients who received 11–15 cycles of therapy,[6]; 7/29 patients,24%
same,Patients completing ≥4 cycles without tumor progression,[6]; 11 of the 29 patients,38%
same,6-month PFS rate,[6]; entire cohort of 29 patients,0.36 ± 0.09
same,Median PFS,"[6]; entire cohort of 29 patients, 95% confidence interval 1.6–11.0 months",2.0 months
same,Number of patients with grade 3+ upper respiratory infection,[7]; all cycles,1
same,Number of patients with grade 3+ upper respiratory infection,[7]; first cycle,0
"CC1=C(/C=C/C(C)=C/C=C/C(C)=C\C(=O)O)C(C)(C)CCC1 [isotretinoin, cis-13-retinoic acid]",concentration at 4 h,[8]; Median serum concentration,830 ng/mL
same,concentration at 4 h,"[8]; Serum concentration, range",190 to 1400 ng/mL
